Results on two molecules are retold here after patent US20240392302A1, “METHOD FOR DETECTING AND QUANTIFYING RNA” (FLUORESCENCE DIAGNOSIS (SHANGHAI) BIOTECH COMPANY LTD., priority 2021, published 2024).

The subject of data set [1] is RNA aptamers. The conditions noted are these: cited from earlier work.
A short description of data set [2]: N16-1 as a label for RNA extraction and purification. The settings on record: total RNA of COS-7 cells; eluent vs crushed supernatant, incubated with I-5-14. The procedure:
In order to detect the application of N16-1 to RNA extraction and purification, the pCDNA3.1/hygro(+)-ACTB-N16-1 recombinant plasmids in Example 13 were transfected into COS-7 cells, cells were collected 24 h later, and total RNA of cells was extracted by using Eastep Super total RNA extraction kit (Promega). The extracted total RNA dissolved in a buffer solution having a pH value of 7.4 and containing 40 mM of HEPES, 125 mM of KCl and 5 mM of MgCl2, and was incubated at 70° C. for 10 min, and then was placed at room temperature for more than 30 min.
500 μL of Activated Thiol Sepharose 4B (GE Healthcare) was taken and was washed twice with 500 μL of PBS, and PBS containing 10 mM of TCEP (Sigma) was added for incubation at room temperature for 1 h. 500 μL of PBS was used for cleaning twice, I-5-14 fluorophore molecules (Mal-I-5-14) containing maleic amide were added for reaction at room temperature for 30 min, and then 500 μL of PBS was used for cleaning for three times. […]
With crushed supernatant of blank cells as control, the fluorescence of the crushed supernatant of cells incubated with fluorophore I-5-14, and that of the eluent after final high temperature elution incubated with fluorophore I-5-14 were respectively detected.

As to `CN(C)c1ccc(C(=C2C=CC(=[N+](C)C)C=C2)c2ccccc2)cc1` [MG, malachite green], the fluorescence enhancement multiple in data set [1] is 2360.

B1: ACTB-N16-1: ACTB-N16-1 chimeric RNA, SEQ ID NO: 13 (nucleic acid)
chain: ANGGANGANGANANCGCCGCGCNCGNCGNCGACAACGGCNCCGGCANGNGCAAGGCCGGCNNCGCGGGCGACGANGCCCCCCGGGCCGNCNNCCCCNCCANCGNGGGGCGCCCCAGGCACCAGGGCGNGANGGNGGGCANGGGNCAGAAGGANNCCNANGNGGGCGACGAGGCCCAGAGCAAGAGAGGCANCCNCACCCNGAAGNACCCCANCGAGCACGGCANCGNCACCAACNGGGACGACANGGAGAAAANCNGGCACCACACCNNCNACAANGAGCNGCGNGNGGCNCCCGAGGAGCACCCCGNGCNGCNGACCGAGGCCCCCCNGAACCCCAAGGCCAACCGCGAGAAGANGACCCAGANCANGNNNGAGACCNNCAACACCCCAGCCANGNACGNNGCNANCCAGGCNGNGCNANCCCNGNACGCCNCNGGCCGNACCACNGGCANCGNGANGGACNCCGGNGACGGGGNCACCCACACNGNGCCCANCNACGAGGGGNANGCCCNCCCCCANGCCANCCNGCGNCNGGACCNGGCNGGCCGGGACCNGACNGACNACCNCANGAAGANCCNCACCGAGCGCGGCNACAGCNNCACCACCACGGCCGAGCGGGAAANCGNGCGNGACANNAAGGAGAAGCNGNGCNACGNCGCCCNGGACNNCGAGCAAGAGANGGCCACGGCNGCNNCCAGCNCCNCCCNGGAGAAGAGCNACGAGCNGCCNGACGGCCAGGNCANCACCANNGGCAANGAGCGGNNCCGCNGCCCNGAGGCACNCNNCCAGCCNNCCNNCCNGGGCANGGAGNCCNGNGGCANCCACGAAACNACCNNCAACNCCANCANGAAGNGNGACGNGGACANCCGCAAAGACCNGNACGCCAACACAGNGCNGNCNGGCGGCACCACCANGNACCCNGGCANNGCCGACAGGANGCAGAAGGAGANCACNGCCCNGGCACCCAGCACAANGAAGANCAAGANCANNGCNCCNCCNGAGCGCAAGNACNCCGNGNGGANCGGCGGCNCCANCCNGGCCNCGCNGNCCACCNNCCAGCAGANGNGGANCAGCAAGCAGGAGNANGACGAGNCCGGCCCCNCCANCGNCCACCGCAAANGCNNCNAGCNCGAGGCCGCGGGCNCCAGGNGCNGCNNCGGCAGGNAACGGACNNAGANCCACNGNACGCCCGCGGC
As to B1, the “enrichment of RNA on Mal-I-5-14 microbeads” value in data set [2] was “well enriched”.
